Laboratory results from ChEMBL document CHEMBL1833933, “Relationship between the structures of flavonoids and their NF-κB-dependent transcriptional activities” (Bioorg Med Chem Lett, 2011).
Activity calls are given as the source filed them. The calls are words filed in the database; no cut-off is given here.

system: HCT-116; experiment: Inhibition of NF-kappaB activation expressed in HCT116 cells assessed as inhibition of TNF-alpha-induced transcriptional activation at 10 uM after 12 hrs by luciferase reporter gene assay relative to control; assay type: cell-based; conditions: values are per cent of control

Going from `Cc1c(-c2ccccc2)oc2c(C(=O)O)cccc2c1=O` to `O=c1cc(-c2ccccc2)oc2cccc(O)c12`, the residual activity falls from 143% to 116%.

Compared with `COc1ccc(-c2cc(=O)c3c(OC)cc(OC)cc3o2)cc1`, `COc1ccc(-c2coc3cc(OC)cc(OC)c3c2=O)cc1` is higher in residual activity: 89.9% for the first, 123% for the second.

First: COc1ccc2c(c1)OC(c1cc(OC)c(OC)c(OC)c1)CC2=O (stereo not drawn)
Second: COc1cc(OC)c2c(c1)OC(c1ccccc1)CC2=O (stereo not drawn)
The residual activity of the first is lower: 99.8% for the first, 126% for the second.

Going from `COc1cccc(/C=C/C(=O)c2cc(OC)cc(OC)c2)c1` to `COc1cc(/C=C/C(=O)c2ccccc2OC)cc(OC)c1`, the residual activity falls from 77.4% to 61.1%.

Going from `COc1cccc2oc(-c3ccccc3)cc(=O)c12` to `COc1cccc2oc(-c3ccc(O)cc3)cc(=O)c12`, the residual activity rises from 63.9% to 87.7%.

First: COc1cccc2c1C(=O)CC(c1ccccc1)O2 (stereo not drawn)
Second: O=C1C[C@@H](c2ccc(O)cc2)Oc2cc(O)cc(O)c21
The residual activity of the first is lower: 108% for the first, 135% for the second.

Compared with `O=c1c(O)c(-c2ccc(O)c(O)c2)oc2c(O[C@@H]3O[C@H](CO)[C@@H](O)[C@H](O)[C@H]3O)c(O)cc(O)c12`, `COc1cc(-c2oc3cc(O)cc(O)c3c(=O)c2O[C@@H]2O[C@H](CO)[C@@H](O)[C@H](O)[C@H]2O)ccc1O` is higher in residual activity: 99.1% for the first, 115% for the second.

Compared with `COc1ccccc1-c1cc(=O)c2ccc3ccccc3c2o1`, `O=c1cc(-c2ccccc2)oc2c1ccc1ccccc12` is higher in residual activity: 65.1% for the first, 91.4% for the second.

Going from `O=c1cc(-c2cccc(O)c2)oc2cccc(O)c12` to `O=c1cc(-c2cccc(O)c2O)oc2ccccc12`, the residual activity falls from 126% to 109%.

First: O=c1cc(-c2ccccc2)oc2ccc3ccccc3c12
Second: O=c1cc(-c2ccccc2)oc2ccccc12
The residual activity of the first is higher: 150% for the first, 113% for the second.

First: COc1cccc(-c2cc(=O)c3ccccc3o2)c1OC
Second: COc1cc(-c2cc(=O)c3ccccc3o2)ccc1O
The residual activity of the first is lower: 100% for the first, 105% for the second.

First: COc1cc(O)c2c(=O)c(-c3ccc(O)cc3)coc2c1
Second: COc1ccc2c(=O)c(-c3ccccc3)coc2c1
The residual activity of the first is lower: 105% for the first, 132% for the second.

First: COc1cc(OC)c2c(=O)cc(-c3ccc(OC)c(OC)c3)oc2c1
Second: COc1ccc(/C=C/C(=O)c2ccc(OC)cc2O)cc1
The residual activity of the first is higher: 124% for the first, 83.1% for the second.

system: HCT-116; experiment: Inhibition of TNF-alpha-induced NF-kappaB activation expressed in HCT116 cells assessed as reduction of IkappaB phosphorylation at Ser32 at 20 uM treated 30 mins before TNFalpha challenge by Western blot analysis; assay type: cell-based; conditions: not given

For `COc1cc(/C=C/C(=O)c2cc(OC)cc(OC)c2)cc(OC)c1`, the inhibition was “Active”.

system: HCT-116; experiment: Inhibition of TNF-alpha-induced NF-kappaB activation expressed in HCT116 cells assessed as reduction of RelA phosphorylation at Ser536 at 20 uM treated 30 mins before TNFalpha challenge by immunofluorescence microscopic analysis; assay type: cell-based; conditions: not given

In the case of `COc1cc(/C=C/C(=O)c2cc(OC)cc(OC)c2)cc(OC)c1`, the inhibition is reported as “Active”.
